Data reported in ChEMBL document CHEMBL4715760, “Balancing potency, metabolic stability and permeability in pyrrolopyrimidine-based EGFR inhibitors” (Eur J Med Chem, 2016).

Assays:
A-431 = assay: Antiproliferative activity against human A431 cells; format: functional, cell-based
PC-9 = assay: Antiproliferative activity against human PC9 cells measured for 96 hrs by sytox green dye staining based proliferation assay; format: functional, cell-based; settings: PC-9, 96 h
AU565 = assay: Antiproliferative activity against human AU565 cells incubated for 72 hrs by ATPlite luminescence assay; format: functional, cell-based; settings: AU565, 72 h
C-33-A = assay: Antiproliferative activity against human C-33A cells incubated for 72 hrs by ATPlite luminescence assay; format: functional, cell-based
CAL-27 = assay: Antiproliferative activity against human CAL27 cells; format: functional, cell-based
FaDu = assay: Antiproliferative activity against human FaDU cells assessed as inhibition of cell growth incubated for 72 hrs by Cell Titer Glo luminescent cell viability assay; format: functional, cell-based
K562 = assay: Antiproliferative activity against human K562 cells assessed as inhibition of cell growth incubated for 72 hrs by Cell Titer Glo luminescent cell viability assay; format: functional, cell-based; settings: K562, 72 h
BXPC-3 = assay: Antiproliferative activity against human BXPC-3 cells measured for 96 hrs by sytox green dye staining based proliferation assay; format: functional, cell-based; settings: BXPC-3, 96 h
[1] = target: T1, Epidermal growth factor receptor (Homo sapiens, UniProt P00533); assay: Inhibition of EGFR (unknown origin) using Tyr 04 peptide as substrate incubated for 1 hr by Z'-LYTE assay
T1 sequence (P00533 whole entry): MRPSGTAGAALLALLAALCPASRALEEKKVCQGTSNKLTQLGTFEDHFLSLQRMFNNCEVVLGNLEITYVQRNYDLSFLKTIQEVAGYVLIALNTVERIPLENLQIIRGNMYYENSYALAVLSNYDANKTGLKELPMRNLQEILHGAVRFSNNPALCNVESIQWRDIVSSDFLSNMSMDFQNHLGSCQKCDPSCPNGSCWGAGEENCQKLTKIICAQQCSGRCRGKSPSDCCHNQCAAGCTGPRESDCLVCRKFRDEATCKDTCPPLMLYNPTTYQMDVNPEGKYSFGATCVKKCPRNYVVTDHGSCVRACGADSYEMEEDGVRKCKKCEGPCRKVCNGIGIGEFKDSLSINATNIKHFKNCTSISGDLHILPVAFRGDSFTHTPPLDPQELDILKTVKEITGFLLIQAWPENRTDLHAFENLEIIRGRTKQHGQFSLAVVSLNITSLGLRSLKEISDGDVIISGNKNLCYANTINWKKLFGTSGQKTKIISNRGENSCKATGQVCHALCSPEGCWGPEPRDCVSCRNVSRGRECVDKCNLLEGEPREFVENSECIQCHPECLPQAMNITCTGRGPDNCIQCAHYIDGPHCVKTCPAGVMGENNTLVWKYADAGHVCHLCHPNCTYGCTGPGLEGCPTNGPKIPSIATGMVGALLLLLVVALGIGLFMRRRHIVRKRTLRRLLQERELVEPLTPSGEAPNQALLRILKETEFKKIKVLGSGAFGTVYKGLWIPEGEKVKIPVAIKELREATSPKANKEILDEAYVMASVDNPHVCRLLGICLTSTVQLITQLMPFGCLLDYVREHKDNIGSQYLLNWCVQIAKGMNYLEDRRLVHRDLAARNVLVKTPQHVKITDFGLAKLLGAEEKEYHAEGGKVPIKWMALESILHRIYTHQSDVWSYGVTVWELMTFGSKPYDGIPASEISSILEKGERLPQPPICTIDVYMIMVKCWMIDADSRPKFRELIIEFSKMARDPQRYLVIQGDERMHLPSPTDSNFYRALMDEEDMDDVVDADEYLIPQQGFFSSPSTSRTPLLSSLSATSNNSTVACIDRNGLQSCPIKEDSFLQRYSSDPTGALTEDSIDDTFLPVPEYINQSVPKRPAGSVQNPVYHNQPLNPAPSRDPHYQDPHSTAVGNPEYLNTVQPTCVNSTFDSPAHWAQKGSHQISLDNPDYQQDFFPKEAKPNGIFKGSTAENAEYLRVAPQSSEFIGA

[2] = target: T2, Serine/threonine-protein kinase Chk1 (Homo sapiens) (UniProt O14757); assay: Inhibition of recombinant human full-length His-tagged CHEK1 expressed in baculovirus expression system at 500 nM using Ser/Thr 19 peptide as substrate incubated for 1 hr in presence of ATP at its Km concentration by Z'-LYTE assay relative to control
T2 sequence (whole entry): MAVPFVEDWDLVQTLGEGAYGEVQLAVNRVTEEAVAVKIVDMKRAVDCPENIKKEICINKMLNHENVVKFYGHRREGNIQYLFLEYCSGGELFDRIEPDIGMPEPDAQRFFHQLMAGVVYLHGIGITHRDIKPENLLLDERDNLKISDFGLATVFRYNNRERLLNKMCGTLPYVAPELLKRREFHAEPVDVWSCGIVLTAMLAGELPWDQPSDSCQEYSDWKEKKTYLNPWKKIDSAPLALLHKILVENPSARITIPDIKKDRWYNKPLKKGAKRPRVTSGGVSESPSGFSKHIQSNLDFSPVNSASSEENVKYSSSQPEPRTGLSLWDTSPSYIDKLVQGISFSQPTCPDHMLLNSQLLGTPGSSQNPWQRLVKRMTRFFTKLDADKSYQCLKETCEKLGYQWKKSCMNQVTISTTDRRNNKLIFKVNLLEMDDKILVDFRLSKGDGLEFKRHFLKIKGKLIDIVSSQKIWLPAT

[3] = target: T3, Ephrin type-A receptor 1 (Homo sapiens) (UniProt P21709); assay: Inhibition of recombinant human GST-tagged EPHA1 (568 to 976 residues) expressed in baculovirus expression system at 500 nM using Tyr 02 peptide as substrate incubated for 1 hr in presence of ATP at its Km concentration by Z'-LYTE assay relative to control
T3 sequence (whole entry): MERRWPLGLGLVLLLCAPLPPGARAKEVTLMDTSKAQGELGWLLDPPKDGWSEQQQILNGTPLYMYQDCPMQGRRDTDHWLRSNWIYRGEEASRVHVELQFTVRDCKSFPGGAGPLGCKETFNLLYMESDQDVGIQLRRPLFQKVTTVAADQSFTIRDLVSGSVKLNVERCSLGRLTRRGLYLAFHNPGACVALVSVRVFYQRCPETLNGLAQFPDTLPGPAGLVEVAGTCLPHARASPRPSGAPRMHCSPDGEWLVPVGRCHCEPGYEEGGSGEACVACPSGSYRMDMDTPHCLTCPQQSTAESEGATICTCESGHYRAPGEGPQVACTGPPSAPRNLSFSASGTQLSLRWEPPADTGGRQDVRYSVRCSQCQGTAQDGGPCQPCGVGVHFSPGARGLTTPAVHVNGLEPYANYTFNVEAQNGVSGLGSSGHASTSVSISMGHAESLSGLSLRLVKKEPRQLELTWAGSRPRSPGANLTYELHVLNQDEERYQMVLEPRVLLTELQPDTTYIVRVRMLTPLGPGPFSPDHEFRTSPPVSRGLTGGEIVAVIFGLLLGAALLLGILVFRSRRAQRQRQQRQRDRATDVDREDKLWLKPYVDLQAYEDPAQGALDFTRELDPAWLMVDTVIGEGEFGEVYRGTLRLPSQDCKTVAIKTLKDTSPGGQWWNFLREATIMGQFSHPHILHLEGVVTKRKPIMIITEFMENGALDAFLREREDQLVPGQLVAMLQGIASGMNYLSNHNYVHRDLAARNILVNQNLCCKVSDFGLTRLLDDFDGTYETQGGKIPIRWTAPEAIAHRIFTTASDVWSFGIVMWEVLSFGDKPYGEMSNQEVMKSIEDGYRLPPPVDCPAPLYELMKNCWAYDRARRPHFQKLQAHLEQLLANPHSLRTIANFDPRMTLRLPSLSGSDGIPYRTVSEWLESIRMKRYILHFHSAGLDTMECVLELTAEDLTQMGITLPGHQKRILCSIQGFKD

[4] = target: Vascular endothelial growth factor receptor 2 (Homo sapiens) (UniProt P35968); assay: Inhibition of recombinant human His-tagged KDR (789 to 1356 residues) expressed in baculovirus expression system at 500 nM using Tyr 01 as substrate incubated for 1 hr in presence of ATP at its Km concentration by Z'-LYTE assay relative to control
Vascular endothelial growth factor receptor 2 (Homo sapiens), sequence (P35968 whole entry, the tested form may be a part): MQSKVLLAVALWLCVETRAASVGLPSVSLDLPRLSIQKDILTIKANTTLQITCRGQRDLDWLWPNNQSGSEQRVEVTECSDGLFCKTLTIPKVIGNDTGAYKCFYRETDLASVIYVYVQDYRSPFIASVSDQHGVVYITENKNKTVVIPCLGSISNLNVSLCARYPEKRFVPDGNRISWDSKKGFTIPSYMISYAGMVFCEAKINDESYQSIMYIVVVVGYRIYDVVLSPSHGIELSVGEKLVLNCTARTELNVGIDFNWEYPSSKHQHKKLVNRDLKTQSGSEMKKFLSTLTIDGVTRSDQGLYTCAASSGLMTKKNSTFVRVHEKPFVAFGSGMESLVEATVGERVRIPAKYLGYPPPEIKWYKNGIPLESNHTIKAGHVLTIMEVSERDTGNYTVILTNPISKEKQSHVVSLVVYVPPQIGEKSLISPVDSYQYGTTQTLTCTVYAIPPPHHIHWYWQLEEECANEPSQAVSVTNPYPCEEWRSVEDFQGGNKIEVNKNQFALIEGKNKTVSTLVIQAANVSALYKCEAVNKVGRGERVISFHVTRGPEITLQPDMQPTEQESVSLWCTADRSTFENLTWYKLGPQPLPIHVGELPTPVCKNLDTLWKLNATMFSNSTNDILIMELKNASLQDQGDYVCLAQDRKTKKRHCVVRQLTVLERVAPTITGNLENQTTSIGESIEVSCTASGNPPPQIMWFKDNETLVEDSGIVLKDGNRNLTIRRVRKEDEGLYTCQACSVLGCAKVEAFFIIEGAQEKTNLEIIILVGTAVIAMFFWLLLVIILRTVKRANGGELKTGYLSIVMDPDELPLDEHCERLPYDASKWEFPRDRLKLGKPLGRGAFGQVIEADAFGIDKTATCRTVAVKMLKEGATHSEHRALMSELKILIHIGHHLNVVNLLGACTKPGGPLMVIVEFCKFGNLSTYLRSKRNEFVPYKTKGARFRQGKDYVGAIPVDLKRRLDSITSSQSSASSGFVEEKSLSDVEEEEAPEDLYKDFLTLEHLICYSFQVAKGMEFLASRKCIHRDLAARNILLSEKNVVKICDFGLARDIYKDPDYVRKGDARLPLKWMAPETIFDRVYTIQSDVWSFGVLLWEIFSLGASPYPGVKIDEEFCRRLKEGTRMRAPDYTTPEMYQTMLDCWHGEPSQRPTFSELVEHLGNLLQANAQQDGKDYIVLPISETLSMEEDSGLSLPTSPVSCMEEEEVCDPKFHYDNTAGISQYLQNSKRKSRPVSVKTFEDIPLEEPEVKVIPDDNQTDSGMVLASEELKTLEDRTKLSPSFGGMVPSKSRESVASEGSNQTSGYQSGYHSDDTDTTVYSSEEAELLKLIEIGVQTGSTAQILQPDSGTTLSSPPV

[5] = target: Tyrosine-protein kinase Lyn (Homo sapiens) (UniProt P07948); assay: Inhibition of recombinant full length human His-tagged LYN-B expressed in baculovirus expression system at 500 nM using Tyr 02 as substrate incubated for 1 hr in presence of ATP at its Km concentration by Z'-LYTE assay relative to contro
Tyrosine-protein kinase Lyn (Homo sapiens), sequence (P07948 2-512 limits assumed): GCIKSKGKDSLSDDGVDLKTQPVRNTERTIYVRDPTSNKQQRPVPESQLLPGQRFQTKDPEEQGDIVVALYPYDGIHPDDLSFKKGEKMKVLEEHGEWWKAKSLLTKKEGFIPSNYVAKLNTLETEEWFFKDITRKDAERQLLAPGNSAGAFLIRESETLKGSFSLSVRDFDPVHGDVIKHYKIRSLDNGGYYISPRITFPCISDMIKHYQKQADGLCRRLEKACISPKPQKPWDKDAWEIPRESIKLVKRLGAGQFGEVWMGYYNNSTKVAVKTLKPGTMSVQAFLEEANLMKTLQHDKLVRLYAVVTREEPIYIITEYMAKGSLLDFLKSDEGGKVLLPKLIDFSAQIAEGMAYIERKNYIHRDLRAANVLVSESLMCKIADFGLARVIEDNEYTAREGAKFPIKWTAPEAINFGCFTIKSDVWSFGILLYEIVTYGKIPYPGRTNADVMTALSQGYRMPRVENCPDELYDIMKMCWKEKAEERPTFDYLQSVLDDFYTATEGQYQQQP

[6] = target: Proto-oncogene tyrosine-protein kinase receptor Ret (Homo sapiens) (UniProt P07949); assay: Inhibition of recombinant human GST-tagged RET (658 to 1114 residues) expressed in baculovirus expression system at 500 nM using Tyr 02 as substrate incubated for 1 hr in presence of ATP at its Km concentration by Z'-LYTE assay relative to control
Proto-oncogene tyrosine-protein kinase receptor Ret (Homo sapiens), sequence (P07949 whole entry, the tested form may be a part): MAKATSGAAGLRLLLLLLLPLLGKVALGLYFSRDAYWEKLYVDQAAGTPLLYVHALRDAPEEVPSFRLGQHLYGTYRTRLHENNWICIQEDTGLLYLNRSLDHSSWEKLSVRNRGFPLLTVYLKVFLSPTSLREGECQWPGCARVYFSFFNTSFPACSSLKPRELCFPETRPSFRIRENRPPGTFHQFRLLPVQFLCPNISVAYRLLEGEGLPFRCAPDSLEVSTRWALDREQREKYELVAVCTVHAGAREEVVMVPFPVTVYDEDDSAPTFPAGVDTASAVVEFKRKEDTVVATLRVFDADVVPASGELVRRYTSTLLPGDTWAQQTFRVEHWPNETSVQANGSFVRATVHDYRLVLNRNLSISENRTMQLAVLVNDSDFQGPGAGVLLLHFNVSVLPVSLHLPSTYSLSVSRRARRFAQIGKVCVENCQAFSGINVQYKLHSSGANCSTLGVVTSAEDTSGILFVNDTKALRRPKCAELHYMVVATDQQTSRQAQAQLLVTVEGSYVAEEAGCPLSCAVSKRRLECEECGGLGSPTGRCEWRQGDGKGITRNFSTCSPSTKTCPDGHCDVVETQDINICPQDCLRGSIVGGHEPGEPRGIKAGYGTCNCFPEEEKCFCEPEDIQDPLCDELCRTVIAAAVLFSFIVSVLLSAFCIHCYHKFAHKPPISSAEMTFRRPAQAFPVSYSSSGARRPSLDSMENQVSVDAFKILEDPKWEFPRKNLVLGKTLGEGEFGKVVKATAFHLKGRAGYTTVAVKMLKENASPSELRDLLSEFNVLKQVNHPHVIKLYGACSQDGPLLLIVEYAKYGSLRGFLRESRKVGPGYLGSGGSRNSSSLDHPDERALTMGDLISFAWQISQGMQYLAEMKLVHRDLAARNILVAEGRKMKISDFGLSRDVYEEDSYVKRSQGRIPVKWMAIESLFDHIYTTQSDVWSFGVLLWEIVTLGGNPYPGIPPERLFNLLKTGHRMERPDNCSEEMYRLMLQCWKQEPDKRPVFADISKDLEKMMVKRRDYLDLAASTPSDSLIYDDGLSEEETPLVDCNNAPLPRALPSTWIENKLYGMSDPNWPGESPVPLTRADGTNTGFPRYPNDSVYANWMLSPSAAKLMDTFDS

[7] = target: Tyrosine-protein kinase Yes (Homo sapiens) (UniProt P07947); assay: Inhibition of full length recombinant GST-tagged human YES1 expressed in baculovirus expression system at 500 nM using Tyr 02 as substrate incubated for 1 hr in presence of ATP at its Km concentration by Z'-LYTE assay relative to control
Tyrosine-protein kinase Yes (Homo sapiens), sequence (P07947 2-543 limits assumed): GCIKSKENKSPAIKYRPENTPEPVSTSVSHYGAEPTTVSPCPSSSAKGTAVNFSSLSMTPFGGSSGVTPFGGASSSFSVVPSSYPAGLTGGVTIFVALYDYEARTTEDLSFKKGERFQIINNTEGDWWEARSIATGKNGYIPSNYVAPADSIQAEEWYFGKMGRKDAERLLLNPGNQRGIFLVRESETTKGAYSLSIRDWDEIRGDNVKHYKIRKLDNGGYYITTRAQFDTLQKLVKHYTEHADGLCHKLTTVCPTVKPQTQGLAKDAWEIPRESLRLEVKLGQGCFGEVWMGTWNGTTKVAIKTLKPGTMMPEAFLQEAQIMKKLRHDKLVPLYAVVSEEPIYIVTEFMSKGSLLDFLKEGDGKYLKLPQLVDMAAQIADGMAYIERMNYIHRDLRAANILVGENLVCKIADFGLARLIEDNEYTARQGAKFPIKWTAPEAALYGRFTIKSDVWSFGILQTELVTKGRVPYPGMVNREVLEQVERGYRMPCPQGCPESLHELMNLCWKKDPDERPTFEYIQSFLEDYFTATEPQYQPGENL

[8] = target: T1, Epidermal growth factor receptor; settings: dose 100.0 nM, time 1.0 hrs
[9] = target: Platelet-derived growth factor receptor alpha (Homo sapiens) (UniProt P16234); assay: Inhibition of recombinant human GST-tagged PDGFRalpha (550 to 1089 residues) expressed in baculovirus expression system at 500 nM using Tyr 04 as substrate incubated for 1 hr in presence of ATP at its Km concentration by Z'-LYTE assay relative to control

Row | IC50 (A-431) | IC50 (K562) | IC50 [1] | inhibition [2] | inhibition [3] | inhibition [4] | inhibition [5] | inhibition [6] | inhibition [7] | inhibition [8] | inhibition [9] | Structure (SMILES) | IC50 (PC-9) | IC50 (AU565) | IC50 (C-33-A) | IC50 (CAL-27) | IC50 (FaDu) | IC50 (BXPC-3)
1 | 300 nM | 15000 nM | 0.4 nM | 10% | 19% | 28% | 60% | 14% | 65% | 99% | – | OC[C@@H](Nc1ncnc2[nH]c(-c3ccccc3)cc12)c1ccccc1 | < 100 nM | 2500 nM | 700 nM | 2700 nM | > 33000 nM | 15000 nM
2 | – | – | 0.8 nM | 3% | 15% | 15% | 64% | 15% | 68% | 100% | 6% | COc1ccccc1-c1cc2c(N[C@H](CO)c3ccccc3)ncnc2[nH]1 | – | – | – | – | – | –
3 | 400 nM | 55000 nM | – | -7% | – | – | – | – | – | – | – | C#Cc1cccc(Nc2ncnc3cc(OCCOC)c(OCCOC)cc23)c1 [ERLOTINIB] | < 100 nM | 3300 nM | 900 nM | 1300 nM | > 11000 nM | 1900 nM
4 | 800 nM | – | – | – | 13% | 0% | 49% | 2% | 50% | – | – | OCC[C@@H](Nc1ncnc2[nH]c(-c3ccccc3)cc12)c1ccccc1 | – | – | – | – | – | –
5 | 9200 nM | – | – | – | 13% | 9% | 44% | 9% | 56% | – | -8% | CCOc1ccccc1-c1cc2c(N[C@H](CO)c3ccccc3)ncnc2[nH]1 | – | – | – | – | – | –
6 | > 10000 nM | – | – | – | 48% | 53% | 68% | 25% | 81% | – | – | CN(C)CCNCc1ccc(-c2cc3c(N[C@H](CO)c4ccccc4)ncnc3[nH]2)cc1F | – | – | – | – | – | –
